Laboratory results reported in ChEMBL document CHEMBL4251700, “Novel Staphyloxanthin Inhibitors with Improved Potency against Multidrug Resistant Staphylococcus aureus” (ACS Med Chem Lett, 2018).
The source made the active and inactive calls. The rule behind the calls is not given here.

What was measured:
Staphylococcus aureus [1] = test: Antibacterial activity against Staphylococcus aureus Newman infected in BALB/c mouse assessed as reduction of bacterial burden in liver at 0.4 mg, ip bid administered at 12 hrs prior to bacterial infection dosed at 12 intervals for 4.5 days relative to control; type: functional; set-up: scale not given: the % may be the effect or the level left
[2] = tested on: Trichophyton mentagrophytes; test: Antifungal activity against Trichophyton mentagrophytes after 7 days; type: functional, organism-based
Staphylococcus aureus [3] = test: Growth inhibition of methicillin-resistant Staphylococcus aureus USA400 MW2 at 0.2 mM incubated overnight measured at 30 mins interval; type: organism-based; conditions: 0.5 h, 200 µM

Structure (SMILES): CN(C/C=C/C=C/c1ccc(C(F)(F)F)cc1)Cc1ccc2c(c1)OCCO2.Cl
- Activity (Staphylococcus aureus [1]): 86.7%
- Activity [2]: inactive
- growth inhibition (GI) (Staphylococcus aureus [3]): Non-Toxic
